Test results taken from PubChem BioAssay (NCI).
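Here, GI50 denotes the concentration required for 50% inhibition of growth. At the TGI there is no net growth.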

What was measured:
Assay in all cases: NCI anticancer screen, dose series, 384-well format; in the data active means GI50 below about 0.43 µM; inactive means the rest
A498 renal = tested on: A498 renal
MALME-3M melanoma = tested on: MALME-3M melanoma
SF-268 CNS = tested on: SF-268 CNS
HS 578T breast = tested on: HS 578T breast
BT-549 breast = tested on: BT-549 breast
IGROV1 ovarian = tested on: IGROV1 ovarian
RXF 393 renal = tested on: RXF 393 renal
SR leukemia = tested on: SR leukemia
ACHN renal = tested on: ACHN renal
T-47D breast = tested on: T-47D breast
PC-3 prostate = tested on: PC-3 prostate
OVCAR-3 ovarian = tested on: OVCAR-3 ovarian
KM12 colon = tested on: KM12 colon
NCI-H460 NSCLC = tested on: NCI-H460 NSCLC
LOX IMVI melanoma = tested on: LOX IMVI melanoma
HL-60(TB) leukemia = tested on: HL-60(TB) leukemia
DU-145 prostate = tested on: DU-145 prostate
NCI-H322M lung = tested on: NCI-H322M lung
NCI-H23 lung = tested on: NCI-H23 lung
MOLT-4 leukemia = tested on: MOLT-4 leukemia
OVCAR-5 ovarian = tested on: OVCAR-5 ovarian
HOP-92 NSCLC = tested on: HOP-92 NSCLC
SF-539 CNS = tested on: SF-539 CNS
SK-MEL-28 melanoma = tested on: SK-MEL-28 melanoma
MDA-MB-468 breast = tested on: MDA-MB-468 breast
SK-OV-3 ovarian = tested on: SK-OV-3 ovarian
HCC-2998 colon = tested on: HCC-2998 colon
HCT-15 colon = tested on: HCT-15 colon
SF-295 CNS = tested on: SF-295 CNS
SNB-75 CNS = tested on: SNB-75 CNS
COLO 205 colon = tested on: COLO 205 colon
MCF7 breast = tested on: MCF7 breast
OVCAR-4 ovarian = tested on: OVCAR-4 ovarian
EKVX NSCLC = tested on: EKVX NSCLC
TK-10 renal = tested on: TK-10 renal
HT29 colon = tested on: HT29 colon
M14 melanoma = tested on: M14 melanoma
UACC-62 melanoma = tested on: UACC-62 melanoma
NCI-H522 lung = tested on: NCI-H522 lung
U251 glioblastoma = tested on: U251 glioblastoma
RPMI-8226 leukemia = tested on: RPMI-8226 leukemia
A549 NSCLC = tested on: A549 NSCLC
MDA-MB-231 breast = tested on: MDA-MB-231 breast
HCT-116 colon = tested on: HCT-116 colon
SK-MEL-5 melanoma = tested on: SK-MEL-5 melanoma
NCI-H226 lung = tested on: NCI-H226 lung
CAKI-1 renal = tested on: CAKI-1 renal
HOP-62 NSCLC = tested on: HOP-62 NSCLC
NCI/ADR-RES ovarian = tested on: NCI/ADR-RES ovarian
SNB-19 CNS = tested on: SNB-19 CNS
UACC-257 melanoma = tested on: UACC-257 melanoma
OVCAR-8 ovarian = tested on: OVCAR-8 ovarian
SN12C renal = tested on: SN12C renal
MDA-MB-435 melanoma = tested on: MDA-MB-435 melanoma

O=C1Nc2ccc(CN3CCOC3=O)cc2/C1=C/c1cc(CN2CCOCC2)c[nH]1
68.3 µM: TGI (LOX IMVI melanoma)
> 100 µM: TGI (A498 renal) | TGI (MALME-3M melanoma) | TGI (SF-268 CNS) | TGI (HS 578T breast) | TGI (IGROV1 ovarian) | TGI (RXF 393 renal) | TGI (ACHN renal) | TGI (OVCAR-3 ovarian) | TGI (KM12 colon) | TGI (DU-145 prostate) | TGI (NCI-H322M lung) | TGI (NCI-H23 lung) | TGI (OVCAR-5 ovarian) | TGI (HOP-92 NSCLC) | TGI (SF-539 CNS) | TGI (SK-MEL-28 melanoma) | TGI (SK-OV-3 ovarian) | TGI (SF-295 CNS) | TGI (SNB-75 CNS) | TGI (COLO 205 colon) | TGI (MCF7 breast) | TGI (EKVX NSCLC) | TGI (TK-10 renal) | TGI (HT29 colon) | TGI (M14 melanoma) | TGI (UACC-62 melanoma) | TGI (U251 glioblastoma) | TGI (A549 NSCLC) | TGI (MDA-MB-231 breast) | TGI (HCT-116 colon) | TGI (CAKI-1 renal) | TGI (SNB-19 CNS) | TGI (UACC-257 melanoma) | TGI (OVCAR-8 ovarian) | TGI (SN12C renal)
44 µM: TGI (T-47D breast)
76.7 µM: TGI (MDA-MB-435 melanoma)
40 µM: TGI (NCI-H460 NSCLC)
30.6 µM: TGI (SR leukemia)
55.2 µM: TGI (NCI-H522 lung)
39.8 µM: TGI (RPMI-8226 leukemia)
30 µM: TGI (HL-60(TB) leukemia)
36.5 µM: TGI (MOLT-4 leukemia)
30.8 µM: TGI (SK-MEL-5 melanoma)
58.9 µM: TGI (BT-549 breast)
inactive: GI50 (A498 renal) > 100 µM | GI50 (MALME-3M melanoma) > 100 µM | GI50 (SF-268 CNS) 49.9 µM | GI50 (HS 578T breast) 64.6 µM | GI50 (BT-549 breast) 24.5 µM | GI50 (IGROV1 ovarian) 43.4 µM | GI50 (RXF 393 renal) 96.3 µM | GI50 (SR leukemia) 14 µM | GI50 (ACHN renal) 77.9 µM | GI50 (T-47D breast) 17.5 µM | GI50 (PC-3 prostate) 35.3 µM | GI50 (OVCAR-3 ovarian) 40.3 µM | GI50 (KM12 colon) 5.29 µM | GI50 (NCI-H460 NSCLC) 19.6 µM | GI50 (LOX IMVI melanoma) 28.7 µM | GI50 (HL-60(TB) leukemia) 16.3 µM | GI50 (DU-145 prostate) 45.9 µM | GI50 (NCI-H322M lung) 43.7 µM | GI50 (NCI-H23 lung) 25.2 µM | GI50 (MOLT-4 leukemia) 20.5 µM | GI50 (OVCAR-5 ovarian) > 100 µM | GI50 (HOP-92 NSCLC) > 100 µM | GI50 (SF-539 CNS) 53.8 µM | GI50 (SK-MEL-28 melanoma) 71.8 µM | GI50 (MDA-MB-468 breast) 23 µM | GI50 (SK-OV-3 ovarian) 43.5 µM | GI50 (HCC-2998 colon) 30.1 µM | GI50 (HCT-15 colon) 27.9 µM | GI50 (SF-295 CNS) 33.8 µM | GI50 (SNB-75 CNS) 86 µM | GI50 (COLO 205 colon) 49.2 µM | GI50 (MCF7 breast) 33.1 µM | GI50 (OVCAR-4 ovarian) 33.5 µM | GI50 (EKVX NSCLC) 38.2 µM | GI50 (TK-10 renal) 43.3 µM | GI50 (HT29 colon) 30.4 µM | GI50 (M14 melanoma) 49 µM | GI50 (UACC-62 melanoma) 45.1 µM | GI50 (NCI-H522 lung) 21.6 µM | GI50 (U251 glioblastoma) 42.2 µM | GI50 (RPMI-8226 leukemia) 18.2 µM | GI50 (A549 NSCLC) 49.7 µM | GI50 (MDA-MB-231 breast) 58.8 µM | GI50 (HCT-116 colon) 41.2 µM | GI50 (SK-MEL-5 melanoma) 15.7 µM | GI50 (NCI-H226 lung) 33.3 µM | GI50 (CAKI-1 renal) 58.5 µM | GI50 (HOP-62 NSCLC) 31.6 µM | GI50 (NCI/ADR-RES ovarian) 30 µM | GI50 (SNB-19 CNS) 63.3 µM | GI50 (UACC-257 melanoma) 35.6 µM | GI50 (OVCAR-8 ovarian) 37.8 µM | GI50 (SN12C renal) 27.1 µM | GI50 (MDA-MB-435 melanoma) 25.5 µM
98.1 µM: TGI (PC-3 prostate)
93.3 µM: TGI (OVCAR-4 ovarian)
75.9 µM: TGI (HOP-62 NSCLC)
68.1 µM: TGI (HCC-2998 colon)
83 µM: TGI (NCI-H226 lung)
93.1 µM: TGI (HCT-15 colon)
83.9 µM: TGI (NCI/ADR-RES ovarian)
85.1 µM: TGI (MDA-MB-468 breast)
